Experiment: molar heat capacity at constant pressure; xn = mol fraction of the nth substance listed
Conditions: 101.3 kPa, Liquid, Small sample (50 mg) DSC

CNCCN(C)C [N,N,N'-trimethylethylenediamine] + O
molar heat capacity at constant pressure [J/K/mol]
Conditions	x1 = 0.1	x1 = 0.3	x1 = 0.5	x1 = 0.7	x1 = 0.9	x1 = 1
303.2 K	105.2	151	188.5	217.4	245.2	258.3
308.2 K	105.5	152.4	190.1	219.1	246.8	260
313.2 K	106.1	154	192.1	221.2	249.3	262.7
318.2 K	106.5	155.6	193.9	223.1	251.7	265.3
323.2 K	107.3	157.8	196.1	226	255.5	269.2
328.2 K	107.6	159.5	198.2	228.5	258.7	272.7
333.2 K	108.1	161.4	200.2	231	261.8	276
338.2 K	108.5	162.7	201.9	233.3	264.4	278.9
343.2 K	109	163.8	203.3	235.3	267.3	281.3
348.2 K	109.4	164.8	204.4	237.5	270.2	283.4
353.2 K	110.3	166.2	206.3	239.8	273.1	286.6

NCCN1CCNCC1 [N-(β-aminoethyl)piperazine)] + O
molar heat capacity at constant pressure [J/K/mol]
Conditions	x1 = 0.1	x1 = 0.3	x1 = 0.5	x1 = 0.7	x1 = 0.9	x1 = 1
303.2 K	109.7	157.3	202.1	242.8	278.3	289.7
308.2 K	110.2	158.5	203.2	244.3	279.8	290.8
313.2 K	110.7	160.3	204.8	246.3	281.6	293.1
318.2 K	111	162.1	206.3	248.1	283.1	294.7
323.2 K	111.4	164.3	208.5	250.6	285.2	296.9
328.2 K	111.4	165.7	210	252.5	287	298.5
333.2 K	111.6	167.3	211.8	253.5	289	300.7
338.2 K	111.8	168.7	213.6	254.5	290.9	302.2
343.2 K	112.4	170.1	215.2	255.9	292	303.3
348.2 K	112.6	171.4	216.3	256.2	292.5	303.6
353.2 K	112.9	173.1	217.6	257.3	293.7	304.6

Reference: the NIST ThermoML archive (doi:10.1016/j.jct.2016.08.006)
